The text below walks through data of PMC8698377, “In Vitro Hepatic Assessment of Cineole and Its Derivatives in Common Brushtail Possums (Trichosurus vulpecula) and Rodents” (Biology, 2021).

For series [1], the system named is CYP3A. The series can be described thus: CYP3A catalytic activity (erythromycin-N-demethylation), mouse hepatic microsomes. It counts as in vitro ADME. Particulars: for activity at 30 min, 12.5 µM / activity at 30 min, 25 µM: read-out: CYP3A catalytic activity, % of Control. The procedure: (§1) Microsomal preparation was as previously outlined. Individual livers were placed in beakers containing 1.15% KCl. All the procedures were carried out at 0–4 °C. The liver samples were minced and homogenised in buffer A (0.1 M Tris, 0.1 M potassium chloride, 1 mM EDTA, and 20 μM butylated hydroxytoluene, at pH = 7.4) using the Teflon-glass homogeniser (5–6 vertical passes). The samples were centrifuged for 20 min at 10,000× g. The supernatant was then transferred into another set of centrifuge tubes and spun for 60 min at 100,000× g. The pellet was resuspended in Buffer B (0.1 M potassium pyrophosphate, 1 mM EDTA, and 20 μM butylated hydroxytoluene, at pH = 7.4), homogenised and recentrifuged for 60 min at 100,000× g. Finally, the pellet was homogenised in 1–2 mL of Buffer C (10 mM Tris-HCl, 1 mM EDTA, and 4% glycerol (v/v)) and stored at […] until used. The protein concentration of the microsomes was determined using the Bicinchoninic acid (BCA) method.
(§2) CYP3A catalytic activity was determined using the erythromycin-N-demethylation activity assay as described previously. The reaction mixture (final volume of 1 mL and final protein concentration of 1 mg) contained 500 µL of microsomes in 0.1 M phosphate buffer (pH = 7.4), 400 µL of erythromycin buffer (0.45 mM), and 50 µL of the test compound was pre-warmed at 37 °C for 2 min. The reaction was initiated with 50 µL of 2.5 mM […] and incubated at 37 °C for 30 min (optimised incubation time). The reaction was stopped with the addition of 330 µL of 15% zinc sulphate. Tubes were vortexed and left for 5 min (at room temperature) and then 330 µL of saturated barium hydroxide was added. Tubes were further vortexed and left for 5 min (at room temperature). Tubes were then centrifuged at 1800 g for 10 min. To 830 µL of the supernatant, 330 µL of Nash reagent (30% (w/v) ammonium acetate, 0.4% (v/v) acetyl acetone) was added and further incubated at 60 °C for 30 min. The blank tube contained 330 µL of Nash reagent and 830 µL of Milli-Q-water. The tubes were centrifuged again at 1800× g for 10 min and the absorbance was read at 415 nm. Results presented are the mean ± SEM of 3 independent experiments conducted in duplicate.

The test system of series [2] is CYP3A. Briefly: CYP3A catalytic activity (erythromycin-N-demethylation), rat hepatic microsomes. The series is classed as in vitro ADME. Conditions: for activity at 30 min, 12.5 µM / activity at 30 min, 25 µM: liver microsomes, pH 7.4, probe erythromycin, read-out: CYP3A catalytic activity, % of Control. The method, then:
as §1, §2
Background: Liver microsomes are a subcellular fraction often used to study metabolism.

The subject of series [3] is CYP3A. The series can be described thus: CYP3A catalytic activity (erythromycin-N-demethylation), possum hepatic microsomes. It counts as in vitro ADME, possum (Trichosurus vulpecula). Particulars: for activity at 30 min, 12.5 µM / activity at 30 min, 25 µM: possum (Trichosurus vulpecula), liver microsomes, pH 7.4, probe erythromycin, read-out: CYP3A catalytic activity, % of Control. The method, then:
as §1, §2

The subject of series [4] is UGT. The series can be described thus: p-nitrophenol glucuronidation, mouse hepatic microsomes. The series is classed as in vitro ADME. The procedure:
as §1
(§3) The rate of p-nitrophenol glucuronidation was determined as previously reported. In short, the incubation mixture (500 µL in total) contained; 100 µL of 1 mg/mL microsomes, 50 µL of 1 M Tris-HCl (pH = 7.4), 20 µL of 0.25% (v/v) Triton-X 100, 50 µL of 50 mM MgCl2, 130 µL of double distilled water, 50 µL of 5 mM p-nitrophenol, 50 µL of the test compound, and 50 µL of uridine 5′-diphosphoglucuronic acid trisodium salt (UDPGA). The blank tubes had all components except UDPGA and microsomes; instead, 150 µL of 0.1 M phosphate buffer was added to equal the volume as the reaction mixture. The reaction mixture and the blank were incubated at 37 °C for 2 min. Then, 50 µL of 30 mM UDPGA was added to initiate the reaction which proceeded at 37 °C for 30 min (optimised incubation time). The reaction was stopped using 1 mL of 5% trichloroacetic acid (TCA). The tubes were centrifuged at 1800 g for 10 min and then 1 mL of supernatant was added to 250 µL of 2 M sodium hydroxide (NaOH). The absorbance was read at 405 nm. The sample reading was subtracted from the blank absorbance and divided by the extinction coefficient of p-nitrophenol ([…]) and the light path of the spectrophotometer (1 cm). The glucuronidation activities are expressed in µmol/mg/min and are the mean ± SEM of 3 independent experiments conducted in duplicate.

Series [5] relates to UGT. The series can be described thus: p-nitrophenol glucuronidation, rat hepatic microsomes. The series is classed as in vitro ADME. The procedure:
as §1, §3

For series [6], the system named is UGT. Briefly: p-nitrophenol glucuronidation, possum hepatic microsomes. The series is classed as in vitro ADME, possum (Trichosurus vulpecula). The procedure:
as §1, §3

In a further series the test system is humans. Details: method as in PMID 7651249. Conditions: cited from earlier work.
For a further series, the system named is dogs. Particulars: cited from earlier work.
The test system of a further series is mice. Details: method as in earlier work. Particulars: cited from earlier work.
The test system of the next series is rats. Details: method as in PMID 6068552. Particulars: cited from earlier work.
The subject of a further series is possums. Also on record: method as in doi:10.1023/A:1020863216892. Particulars: cited from earlier work.
Series [7] concerns CYP enzymes (preferably CYP3A). Details: method as in PMID 11465406. Particulars: possums; cited from earlier work.
In series [8] the test system is CYP3A. Particulars: possum vs human liver microsomes; cited from earlier work.
Setting [9] is: liver microsomes, pH 7.4, probe erythromycin, 12.5 µM.
Setting [10] is: liver microsomes, pH 7.4, probe erythromycin, 25 µM.

For the compound `CC12CCC(CC1)C(C)(C)O2` [Cineole, 1,3,3-trimethyl-2-oxabicyclo [2.2.2]octane], the CYP3A catalytic activity with CYP3A [1] (12.5 µM) is 0.68 ± 0.02 nmol/mg/min; in the series on CYP3A [1] (25 µM), 0.64 ± 0.02 nmol/mg/min; in the series on CYP3A [2] (12.5 µM), 0.64 ± 0.05 nmol/mg/min; with CYP3A [2] (25 µM), 0.65 ± 0.05 nmol/mg/min; in the series with CYP3A [3] (12.5 µM), 0.40 ± 0.01 nmol/mg/min; in the series on CYP3A [3] (25 µM) it was 0.41 ± 0.01 nmol/mg/min. In addition, the activity at 30 min, 12.5 µM with CYP3A [1] (setting [9]) is 101 ± 2.93%; in the series on CYP3A [2] (12.5 µM), 101 ± 2.31%; in the series with CYP3A [3] (12.5 µM), 99.5 ± 2.67%. The activity at 30 min, 25 µM was 94.5 ± 2.69% with CYP3A [1] (setting [10]), 101 ± 1.62% in the series on CYP3A [2] (25 µM) and 101.9 ± 0.29% in the series on CYP3A [3] (25 µM). Also, in the series on CYP3A [1] (liver microsomes, pH 7.4, probe erythromycin, 50 µM, read-out: CYP3A catalytic activity, % of control), the activity at 30 min, 50 µM was 89.3%. The “inhibition of CYP3A catalytic activity” value in the series on CYP3A [2] (50 µM) and in the series on CYP3A [3] (50 µM) was “no major inhibition” each time. Besides, the p-nitrophenol glucuronidation activity turned out to be 2.00 ± 0.16 µmol/mg/min with UGT [4] (12.5 µM); 1.90 ± 0.16 µmol/mg/min in the series on UGT [4] (25 µM); 2.46 ± 0.12 µmol/mg/min with UGT [5] (12.5 µM); 2.67 ± 0.21 µmol/mg/min with UGT [5] (25 µM); 4.09 ± 0.18 µmol/mg/min with UGT [6] (12.5 µM); 4.18 ± 0.13 µmol/mg/min with UGT [6] (25 µM). The “p-nitrophenol glucuronidation, % of Control” value was found to be 100.36 ± 1.99% in the series with UGT [4] (12.5 µM); 94.21 ± 1.51% in the series on UGT [4] (25 µM); 90.25 ± 6.49% in the series with UGT [5] (12.5 µM); 98.18 ± 9.75% in the series on UGT [5] (25 µM); 99.39 ± 1.71% with UGT [6] (12.5 µM); 101.80 ± 1.12% in the series on UGT [6] (25 µM). The “inhibition of p-nitrophenol glucuronidation” value with UGT [4] (50 µM), in the series on UGT [5] (50 µM) and with UGT [6] (50 µM) was “failed to significantly inhibit” each time. Moreover, the “toxic dose following ingestion” value is less than 1000 mg/kg in the series on humans; 1500 mg/kg in the series on dogs; 50 mg/kg in the series on mice; 2500 mg/kg with rats; 3600 mg/kg in the series on possums. Further, the “share of total intrinsic clearance, 3-hydroxycineole” value in series [7] is 14%. For the same compound, in series [7], the “share of total intrinsic clearance, 7-hydroxycineole” value is 11%. Also, the “share of total intrinsic clearance, conversion to 9-hydroxycineole” value in series [7] was 75%.

As for `C[C@]12CC(=O)C[C@@]1(C)CC(=O)C2` [cis-1,5-dimethylbicyclo[3.3.0]octane-3,7-dione], the CYP3A catalytic activity was found to be 0.71 ± 0.03 nmol/mg/min in the series with CYP3A [1] (12.5 µM); 0.70 ± 0.03 nmol/mg/min in the series on CYP3A [1] (25 µM); 0.59 ± 0.04 nmol/mg/min in the series on CYP3A [2] (12.5 µM); 0.60 ± 0.06 nmol/mg/min in the series on CYP3A [2] (25 µM); 0.41 ± 0.02 nmol/mg/min in the series with CYP3A [3] (12.5 µM); 0.40 ± 0.03 nmol/mg/min with CYP3A [3] (25 µM). In addition, the activity at 30 min, 12.5 µM was found to be 101 ± 2.7% in the series with CYP3A [1] (setting [9]), 98.3 ± 3.1% in the series on CYP3A [2] (12.5 µM) and 106 ± 1.42% in the series on CYP3A [3] (12.5 µM). In addition, the activity at 30 min, 25 µM with CYP3A [1] (setting [10]) turned out to be 99.64 ± 0.93%; in the series on CYP3A [2] (25 µM), 99.3 ± 1%; with CYP3A [3] (25 µM) it was 103 ± 6.11%. In addition, the p-nitrophenol glucuronidation activity in the series with UGT [4] (12.5 µM) is recorded as 2.56 ± 0.11 µmol/mg/min; in the series on UGT [4] (25 µM) it was 2.40 ± 0.15 µmol/mg/min; in the series on UGT [5] (12.5 µM), 2.58 ± 0.03 µmol/mg/min; with UGT [5] (25 µM), 2.56 ± 0.02 µmol/mg/min; with UGT [6] (12.5 µM), 3.77 ± 0.28 µmol/mg/min; with UGT [6] (25 µM), 3.78 ± 0.28 µmol/mg/min. Moreover, the “p-nitrophenol glucuronidation, % of Control” value in the series with UGT [4] (12.5 µM) was found to be 102.19 ± 2.82%; in the series on UGT [4] (25 µM), 95.72 ± 2.42%; in the series on UGT [5] (12.5 µM) it was 98.32 ± 3.38%; in the series with UGT [5] (25 µM), 97.79 ± 2.87%; with UGT [6] (12.5 µM), 93.15 ± 4.58%; with UGT [6] (25 µM), 93.30 ± 4.13%.

As to `COC(=O)[C@H]1CC[C@H](C(=O)OC)CC1` [dimethyl-trans-cyclohexane-1,4-dicarboxylate], the CYP3A catalytic activity is 0.72 ± 0.02 nmol/mg/min in the series with CYP3A [1] (12.5 µM); 0.77 ± 0.05 nmol/mg/min in the series with CYP3A [1] (25 µM); 0.64 ± 0.02 nmol/mg/min with CYP3A [2] (12.5 µM); 0.73 ± 0.06 nmol/mg/min with CYP3A [2] (25 µM); 0.39 ± 0.02 nmol/mg/min in the series on CYP3A [3] (12.5 µM); 0.42 ± 0.03 nmol/mg/min in the series with CYP3A [3] (25 µM). The values for the activity at 30 min, 12.5 µM with CYP3A [1] (setting [9]), in the series on CYP3A [2] (12.5 µM) and in the series on CYP3A [3] (12.5 µM) were 100 ± 1.31%, 102 ± 2.42% and 102 ± 4.76%, respectively. Besides, the activity at 30 min, 25 µM with CYP3A [1] (setting [10]) turned out to be 106 ± 4.88%; in the series with CYP3A [2] (25 µM), 116 ± 5.35%; with CYP3A [3] (25 µM), 111 ± 6%. Also, the p-nitrophenol glucuronidation activity with UGT [4] (12.5 µM) came to 2.43 ± 0.06 µmol/mg/min; in the series with UGT [4] (25 µM), 2.73 ± 0.12 µmol/mg/min; in the series on UGT [5] (12.5 µM) it was 2.71 ± 0.13 µmol/mg/min; with UGT [5] (25 µM), 2.83 ± 0.20 µmol/mg/min; in the series on UGT [6] (12.5 µM), 3.96 ± 0.20 µmol/mg/min; in the series on UGT [6] (25 µM), 3.92 ± 0.19 µmol/mg/min. The “p-nitrophenol glucuronidation, % of Control” value amounted to 107.00 ± 0.42% in the series on UGT [4] (12.5 µM); 120.23 ± 8.23 % in the series with UGT [4] (25 µM); 90.77 ± 2.49% with UGT [5] (12.5 µM); 94.83 ± 5.80% in the series on UGT [5] (25 µM); 102.94 ± 4.63% with UGT [6] (12.5 µM); 101.67 ± 0.92% in the series on UGT [6] (25 µM).

Regarding `Cc1ncc2n1-c1ccc(Cl)cc1C(c1ccccc1F)=NC2` [midazolam], in the series on CYP3A [8], the “Vmax of 1′-hydroxylmiazolam, fold lower in possum than in human liver microsomes” value is 8 fold and the “Vmax of 4-hydroxymidazolam, fold lower in possum than in human liver microsomes” value is listed as 23 fold.
